Consider 25 compounds from patent US7576198B1, “Integrase inhibitors containing aromatic heterocycle derivatives” (Shionogi & Co., Ltd., priority 1999, dated 2009).

Molecules are shown by their SMILES.

One assay concerns the target HIV-1 integrase (Human immunodeficiency virus type 1 group M subtype B, UniProt P04585). Put plainly: HIV-1 integrase inhibition assay (microtiter plate, substrate DNA/target DNA, OD 405 nm). The format is biochemical. The note with it: HIV-1 integrase; concentration of the compound at percent inhibition 50%; OD 405 nm. The procedure: The inhibitory effects of the compounds of the present invention for HIV-1 integrase have been determined by the assay described below.
(1) Preparation of DNA solutions.
Substrate DNA and target DNA, which sequences were indicated below, were synthesized by Amersham Pharmacia Biotech and dissolved in KTE buffer (composition: 100 mM KCl, 1 mM EDTA, 10 mM Tris-HCl (pH 7.6)) at concentration of 2 pmol/μl and 5 pmol/μl, respectively. The DNA solutions were annealed with each complement by slowly cooling after heating.
(Substrate DNA) • 5′-Biotin-ACCCTTTTAGTCAGTGTGGAAAATCTCTAGCAGT-3′ • 3-GAAAATCAGTCACACCTTTTAGAGATCGTCA-5′
5′-TGACCAAGGGCTAATTCACT-Dig-3′
3′-Dig-ACTGGTTCCCGATTAAGTGA-5′
(2) Calculations of the percent inhibitions (the IC50 values of test compounds)
Streptavidin, obtained from Vector Laboratories, was dissolved in 0.1 M carbonate buffer (composition: 90 mM Na2CO3, 10 mM NaHCO3) at concentration of 40 μg/ml. After coating each well of microtiter plates (obtained from NUNC) with 50 μl of the above solution at 4° C. over night, each well was washed twice with PBS (composition: […], 0.27 mM KCl, 0.43 mM Na2HPO4, 0.14 mM KH2PO4) and blocked with 300 μl of 1% skim milk in PBS for 30 min. Additionally, each well was washed twice with PBS and added 50 μl of substrate DNA solution (2 pmol/μl). The microtiter plates were kept at room temperature for 30 min. Then, each well was washed twice with PBS and once with H2O.
Subsequently, in the each well prepared above were added 45 μl of the reaction buffer prepared from 12 μl of the buffer (composition: 150 mM MOPS (pH 7.2), 75 mM MnCl2, 50 mM 2-mercaptoethanol, 25% glycerol, 500 μg/ml bovine serum albumin-fraction V), 1 μl of target DNA (5 pmol/μl), and 32 μl of the distilled water. Additionally, 6 μl of either a test compound in DMSO or DMSO for positive control (PC) was mixed with the above reaction buffer, then 9 μl of an integrase solution (30 pmol) was added and mixed well. In the well of negative control (NC) was added 9 μl of the integrase dilution buffer (composition: 20 mM MOPS (pH7.2), 400 mM potassium glutamate, 1 mM EDTA, 0.1% NP-40, 20% glycerol, 1 mM DTT, 4M urea).
The microtiter plates were incubated at 30° C. for 1 hour. The reaction solution was removed and each well was washed twice with PBS. Subsequently, each well of the microtiter plates was filled with 100 μl of anti-digoxigenin antibody labeled with alkaline phosphatase (Sheep Fab fragment: obtained from Boehringer) and incubated at 30° C. for 1 hour. Then, each well was washed twice with 0.05% Tween20 in PBS and once with PBS. Next, 150 μl of the Alkaline phosphatase reaction buffer (composition: 10 mM p-Nitrophenylphosphate (obtained from Vector Laboratories), 5 mM MgCl2, 100 mM NaCl, 100 mM Tris-HCl (pH 9.5)) was added in each well. The microtiter plates were incubated at 30° C. for 2 hours and the reaction was terminated by the addition of 50 μl of 1 N NaOH solution. The optical density (OD) at 405 nm of each well was measured and the percent inhibition was determined by the following expression. The percent inhibition (%)=100[1−{(C abs.−NC abs.)/(PC abs.−NC abs.)}] • C abs.; the OD of the well of the compounds • NC abs. the OD of the negative control (NC) • PC abs.: the OD of the positive control (PC)
The following Compounds (X-1 to 3) were used in order to compare an activity of the present compound with that of the compounds (X-1 to 3). Compound No. in the Table 1 is the same as compound No. of the above example.
`O=C(O)C(=O)c1c(F)ccc(COc2ccc(C=C(O)C(=O)O)nc2)c1F` [Compound I-17, 3-[5-(3-Carboxyoxalyl-2,4-difluorobenzyloxy)-pyridin-2-yl]-2-hydroxy acrylic acid]: the “IC50” value stood at 3.4 µg/mL.

The assay is the same for the next values; noted with them: HIV-1 integrase; concentration of the compound at percent inhibition 50%; OD 405 nm; read-out: IC50 (μg/ml) (converted).
For `O=C(O)C(O)=Cc1cc(CCc2ccccc2)ncn1` [Compound I-25, 3-[6-(2-Phenylethyl)pyrimidin-4-yl)-2-hydroxy acrylic acid], the IC50 is 0.481 µM.

With `CCOC(=O)C(O)=Cc1cc(CCc2ccccc2)ncn1` [Compound I-24, 3-[6-(2-Phenylethyl)pyrimidin-4-yl)-2-hydroxy acrylic acid ethyl ester], the IC50 is 1.01 µM.

On to `O=C(O)/C(O)=C/c1ccc(OCC2CCCCC2)cn1` [Compound I-7, 3-[5-(Cyclohexylmethoxy)pyridin-2-yl]-2-hydroxy acrylic acid], for which the IC50 is 4.69 µM.

Regarding `O=C(O)C(O)=Cc1ccc(OCc2ccccc2)cn1` [Compound I-3, 3-(5-Benzyloxypyridin-2-yl)-2-hydroxy acrylic acid], the IC50 was 1.14 µM.

As to `O=C(O)/C(O)=C/c1cnc(CCc2ccccc2)cn1` [Compound I-27, 3-[5-(2-Phenylethyl)pyradin-2-yl]-2-hydroxy acrylic acid], the IC50 was 2.52 µM.

Regarding `O=C(O)/C(O)=C/c1ccc(OCc2ccccc2)cc1` [Compound X-3, reference compound], the IC50 was greater than 370 µM.

`OC(=Cc1ccc(OCc2ccccc2)cn1)c1nc[nH]n1` [Compound I-14, 2-(5-Benzyloxypyridin-2-yl)-1-(1H-[1,2,4]triazol-3-yl) ethenol]: the IC50 is 3.23 µM.

Regarding `O=C(O)/C(O)=C/c1ccc2ccccc2c1` [Compound X-2, reference compound], the IC50 is greater than 467 µM.

Turning to `CCOC(=O)C(O)=Cc1ccc(OCc2ccccc2)cn1` [Compound I-2, 3-(5-Benzyloxypyridin-2-yl)-2-hydroxy acrylic acid ethyl ester], the IC50 is 1.77 µM.

Take `CCOC(=O)C(O)=Cc1ccc(OCc2ccc(F)cc2F)cn1` [Compound I-46, 3-[5-(2,4-Difluorobenzyloxy)pyridin-2-yl]-2-hydroxy acrylic acid ethyl ester]: the IC50 is 1.64 µM.

For `COc1cc(/C=C(\O)C(=O)O)ccc1OCc1ccccc1` [Compound X-1, reference compound], the IC50 was greater than 333 µM.

Turning to `O=C(O)C(O)=Cc1ccc(OCc2ccc(F)cc2F)cn1` [Compound I-47, 3-[5-(2,4-Difluorobenzyloxy)pyridin-2-yl]-2-hydroxy acrylic acid], the IC50 is 1.63 µM.

In the case of `CC(C)CCOc1ccc(/C=C(\O)C(=O)O)nc1` [Compound I-9, 3-(5-Isopentoxypyridin-2-yl)-2-hydroxy acrylic acid], the IC50 was 11.5 µM.

With `OC(=Cc1ccc(OCc2ccccc2)cn1)c1nccs1` [Compound I-15, 2-(5-Benzyloxypyridin-2-yl)-1-thiazol-2-yl ethenol], the IC50 is 10.2 µM.

With `O=C(O)/C(O)=C/c1ccc(OCc2ccc(C(F)(F)F)cc2)cn1` [Compound I-49, 3-[5-(4-Trifluoromethylbenzyloxy)pyridin-2-yl]-2-hydroxy acrylic acid], the IC50 was 16.5 µM.

For `O=C(O)/C(O)=C/c1nnc(CCc2ccccc2)s1` [Compound I-35, 3-[5-(2-Phenylethyl)[1,3,4]thiadiazol-2-yl)-2-hydroxy acrylic acid], the IC50 was 1.59 µM.

Staying with this assay, now noted: besides the compounds of the IC50 table.
On to `O=C(O)/C(O)=C/c1ncc(CCc2ccccc2)s1` [Compound I-119], for which the “inhibitory effect for HIV-1 integrase, stated in words (compound having high activity)” value (shortened to “inhibitory effect for HIV-1 integrase”) was “high activity”.

Turning to `O/C(=C\c1cc(CCc2ccccc2)ncn1)c1ncccn1` [Compound I-110], the “inhibitory effect for HIV-1 integrase” value is recorded as “high activity”.

For `O/C(=C\c1cc(CCc2ccccc2)ncn1)c1ccccn1` [Compound I-111], the “inhibitory effect for HIV-1 integrase” value is on record as “high activity”.

As for `O=C(O)/C(O)=C/c1cc(C(F)Cc2ccccc2)ncn1` (stereo not shown) [Compound I-115], the “inhibitory effect for HIV-1 integrase” value is “high activity”.

As for `Cc1cc(/C(O)=C/c2cc(CCc3ccccc3)ncn2)no1` [Compound I-103], the “inhibitory effect for HIV-1 integrase” value was “high activity”.

Take `O=C(O)c1ccc(/C(O)=C/c2cc(CCc3ccccc3)ncn2)nc1` [Compound I-114]: the “inhibitory effect for HIV-1 integrase” value is listed as “high activity”.

With `O/C(=C\c1cc(CCc2ccc(F)cc2)ncn1)c1ncccn1` [Compound I-109], the “inhibitory effect for HIV-1 integrase” value is given as “high activity”.

Take `O=C(O)/C(O)=C/c1ncc(CCc2ccccc2)o1` [Compound I-117]: the “inhibitory effect for HIV-1 integrase” value is “high activity”.
